This note sets out measurements from PubChem BioAssay (NCI).

Holding throughout (experiment): DTP human tumour cell line panel, 48 h
The test system of test [1] is MALME-3M melanoma.
Test [2] deals with MCF7 breast.
For test [3], the system named is ACHN renal.
Test [4] relates to MDA-MB-435.
The test system of test [5] is HT29 colon.
For test [6], the system named is SN12C renal.
Test [7] deals with KM12 colon.
The subject of test [8] is UACC-62 melanoma.
Test [9] concerns HCT-15 colon.
The test system of test [10] is MOLT-4 leukemia.

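The compound was tested at five concentrations on cells cultured in 96-well plates, with a 48-hour exposure period. GI50: concentration for 50% inhibition of growth. Definition used: TGI = concentration required for complete inhibition of growth.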 Some results are limits rather than exact numbers.

By GI50 is commonly meant the concentration that inhibits growth by half. Broadly, the TGI is the concentration giving total growth inhibition. Higher therefore signals lower sensitivity of the cells. Turning to `OCC(O)C(O)C(O)/C=N/Nc1nc2ccccc2nc1-c1ccccc1` (stereo not given), the GI50 in test [1] was more than 100 µM; in [2] it was 97.9 µM; in test [3], more than 100 µM; in test [4] it was more than 100 µM; in [5] it was more than 100 µM; in test [6], more than 100 µM. Further, the GI50 is more than 100 µM in test [7], 67.3 µM in [8] and 86.3 µM in test [9]. Moreover, the TGI in [1], in test [2], in test [3], in test [4], in test [5] and in [6] was more than 100 µM in each case. Also, the TGI in test [7], in test [8] and in test [9] was more than 100 µM in each case.
For `COc1ccc(OC)c2c(=S)c3ccccc3[nH]c12`, the TGI is more than 100 µM in test [1]; more than 100 µM in test [2]; 98.4 µM in test [10]; more than 100 µM in test [3]; more than 100 µM in test [4]; more than 100 µM in test [5]. Further, the TGI in test [6] was more than 100 µM; in [7], more than 100 µM; in [8] it was more than 100 µM; in test [9], more than 92.5 µM.
For `NC(=O)c1ccc2nc3c(n2c1)C(=O)C(=O)c1ccccc1-3`, the GI50 is 0.171 µM in test [1]; 0.23 µM in test [2]; 1.02 µM in [10]; 1.34 µM in [3]; 0.186 µM in test [4]; 2.4 µM in test [5]. Moreover, the GI50 is 0.965 µM in test [6], 1.39 µM in test [7], 0.545 µM in test [8] and 1.46 µM in [9]. Besides, the concentration for total growth inhibition (TGI) in [1] amounted to 0.311 µM; in test [2] it was 0.702 µM; in test [10], 4.21 µM; in test [3], 2.62 µM; in [4], 0.336 µM; in [5], 6.01 µM. Besides, the concentration for total growth inhibition (TGI) in test [6] came out at 2.33 µM; in test [7], 2.97 µM; in [8], 1.77 µM; in [9], 3.55 µM.
In the case of `OCc1ccc(N(CCN2CCCC2)Cc2ccc(F)cc2)cc1Cl`, the GI50 in [1] was 22.3 µM; in test [2] it was 13.7 µM; in [10], 25.2 µM; in test [3], 21.8 µM; in test [4] it was 15.9 µM; in test [5], 15.6 µM. Moreover, the GI50 in test [6] was 34.8 µM; in [7], 17.4 µM; in [8], 13.9 µM; in [9], 18.6 µM. Besides, the TGI in [1] was found to be 40.2 µM; in test [2], 32.1 µM; in test [10] it was 62.7 µM; in test [3] it was 72.3 µM; in test [4], 32.8 µM; in test [5], 32.8 µM. Besides, the TGI is more than 100 µM in test [6], 34.9 µM in test [7], 29.1 µM in test [8] and 50.1 µM in test [9].
For the molecule `O=[N+]([O-])c1ccc(Cl)cc1N/N=C/c1cccc2cccnc12`, the TGI in [2], in test [10], in [3], in test [4], in [5] and in test [6] was more than 100 µM in each case. The TGI in test [7], in test [8] and in test [9] was more than 100 µM each time.
As for `NC1=Nc2cc(OCCCN3Cc4ccccc4C3)c(OCC3CC3)cc2C12CCCC2`, the GI50 is 1.73 µM in [1]; 1.8 µM in test [2]; 2.17 µM in test [10]; 3.44 µM in [3]; 1.8 µM in test [4]; 1.95 µM in [5]. For the same molecule, the GI50 was 3.85 µM in [6], 4.04 µM in [7], 1.9 µM in [8] and 2.1 µM in test [9]. Moreover, the TGI in test [1] is 3.26 µM; in test [2], 4.03 µM; in test [10], 6.22 µM; in [3] it was 11.9 µM; in [4] it was 3.66 µM; in test [5] it was 6.53 µM. For the same molecule, the TGI is 15.2 µM in test [6], 15.5 µM in [7], 3.87 µM in [8] and 6.51 µM in [9].
Consider `COc1cc2c(cc1OCCCCOc1ccc(-c3nc4ccccc4s3)cc1)N=C[C@@H]1CCCN1C2=O`, for which the GI50 in [2] is 0.625 µM; in [10], 0.924 µM; in [3], 0.742 µM; in test [5] it was 0.819 µM; in test [6], 1.13 µM; in test [8], 1.14 µM. Moreover, the GI50 in [9] is 1.08 µM. The TGI in test [2] turned out to be 4.34 µM; in test [10] it was 3.86 µM; in test [3] it was 2.59 µM; in [5], 15.8 µM; in [6] it was 4 µM; in [8], 2.69 µM. This molecule gave a TGI in test [9] of 3.89 µM.
Consider `O=C1CS/C(=N\S(=O)(=O)c2ccc(N3N=C4c5ccccc5CC4C3c3ccc(Cl)cc3)cc2)N1c1ccccc1` (stereo not given), for which the GI50 is 18.7 µM in test [2]; 17.2 µM in [10]; 27.7 µM in test [3]; 30.6 µM in [4]; 37.3 µM in test [6]; 22 µM in test [7]. Also, the GI50 was 30.1 µM in [8] and 34.8 µM in test [9]. Moreover, the TGI in [2] was 47.9 µM; in test [10] it was 40.7 µM; in test [3], 66.5 µM; in test [4] it was 88.8 µM; in [6] it was more than 100 µM; in test [7], 58.6 µM. Moreover, the TGI is 77.3 µM in [8] and more than 100 µM in [9].
For the molecule `Cc1ccc(Sc2sc(-c3ccccc3)nc2[P+](c2ccccc2)(c2ccccc2)c2ccccc2)cc1`, the GI50 in test [1] is 0.27 µM; in test [10] it was 0.363 µM; in test [3] it was 0.268 µM; in test [4] it was 0.291 µM; in test [5] it was 0.237 µM; in test [6] it was 0.323 µM. In addition, the results for the GI50 in test [7], in test [8] and in test [9] were 0.314 µM, 0.317 µM and 0.3 µM, respectively. Moreover, the TGI in [1] came to 0.92 µM; in [10], 1.59 µM; in [3], 0.933 µM; in [4] it was 0.882 µM; in [5], 1.17 µM; in test [6], 1.1 µM. Also, the TGI was 1.09 µM in test [7], 1.25 µM in [8] and 1.14 µM in test [9].
